In US4593104A, “2-halo-N-(azole-1-yl-methyl)-substituted acetanilides” (BASF Aktiengesellschaft, priority 1976, dated 1986):

What was measured:
Test in all cases: preemergence treatment in the greenhouse, % damage
Alopec. myosur. = assay type: in vivo
Source text: (§1) The vessels employed were plastic flowerpots having a volume of 300 cm^3; the substrate was a sandy loam containing about 1.5% humus. The seeds of the test plants (see Table 1) were sown shallow, and separated according to species. In the case of Cyperus esculentus, pregerminated tubers were planted. In the preemergence treatment, the active ingredients were then immediately applied to the surface of the soil. They were suspended or emulsified in water as the vehicle, and sprayed through atomizing nozzles. After the agents had been applied, the vessels were lightly sprinkler-irrigated to set germination and growth going, and to activate the chemical agents. The vessels were then covered with transparent plastic hoods until the plants had taken root. This cover ensured uniform germination of the test plants (to the extent that this was not impaired by the chemicals), and prevented readily volatile substances from evaporating.
(§2) For postemergence treatment, the plants were first grown to a height of from 3 to 10 cm, depending on their habit, before treated. Hoods were not placed on the pots. The experiments were set up in the greenhouse, hotter areas (25° to 40° C.) being preferred for heat-loving species, and 15° to 30° C. for plants from moderate climates. The experiments were carried out for from 4 to 6 weeks. During this period the plants were tended and their reaction to the various treatments was assessed. The following tables contain the substances investigated, the application rates in kg/ha of active ingredient, and the test plant species. Assessments were made on a 0 to 100 scale, 0 denoting no damage or normal emergence, and 100 denoting no emergence or complete destruction of at least the visible plant parts.

Sorgh. halep. = assay type: in vivo
Source text: as §1, §2

Cyp. diff. = assay type: in vivo
Source text: as §1, §2

Setaria spp. = assay type: in vivo
Source text: as §1, §2

Amar. retro. = assay type: in vivo
Source text: as §1, §2

Echin. c.g. = assay type: in vivo
Source text: as §1, §2

Matric. spp. = assay type: in vivo
Source text: as §1, §2

Bromus spp. = assay type: in vivo
Source text: as §1, §2

Beta vulg. = assay type: in vivo, Beta vulgaris
Source text: as §1, §2

Glyc. max = assay type: in vivo, Glycine max
Source text: as §1, §2

Sorgh. bicol. = assay type: in vivo, Sorghum bicolor
Source text: as §1, §2

Zea mays = assay type: in vivo
Source text: as §1, §2

Gossyp. hirs. = assay type: in vivo, Gosspyium hirsutum
Source text: as §1, §2

Cyper. escul. = assay type: in vivo, Cyperus esculentus
Source text: as §1, §2

Solanum nigrum = assay type: in vivo
Source text: as §1, §2

Euph. gen. = assay type: in vivo
Source text: as §1, §2

Row | SMILES | % damage (Alopec. myosur.; 2.0 kg/ha) | % damage (Sorgh. halep.; 2.0 kg/ha) | % damage (Cyp. diff.; 2.0 kg/ha) | % damage (Setaria spp.; 2.0 kg/ha) | % damage (Amar. retro.; 2.0 kg/ha) | % damage (Echin. c.g.; 2.0 kg/ha) | % damage (Alopec. myosur.; 1.0 kg/ha) | % damage (Setaria spp.; 1.0 kg/ha) | % damage (Echin. c.g.; 1.0 kg/ha) | also measured
1 | CCc1cccc(CC)c1N(Cn1nc(C)nc1C)C(=O)CCl [Compound 162] | 95% | 95% | 100% | 100% | 100% | 100% |  |  |  | 
2 | Cc1cccc(N(Cn2cncn2)C(=O)CCl)c1C [Compound 139] | 70% | 50% | 90% | 30% | 40% | 90% |  |  |  | 
3 | CCc1ccccc1N(Cn1nc(C)cc1C)C(=O)CCl [Compound 36] |  |  |  |  |  |  | 100% | 95% | 95% | % damage (Alopec. myosur.; 0.5 kg/ha): 90%; % damage (Sorgh. halep.; 0.5 kg/ha): 40%; % damage (Sorgh. halep.; 1.0 kg/ha): 40%; % damage (Setaria spp.; 0.5 kg/ha): 90%; % damage (Amar. retro.; 0.5 kg/ha): 95%; % damage (Amar. retro.; 1.0 kg/ha): 95%; % damage (Echin. c.g.; 0.5 kg/ha): 80%
4 | CCc1cccc(C)c1N(Cn1cc(Cl)cn1)C(=O)CCl |  |  |  |  |  |  | 90% | 85% | 100% | % damage (Matric. spp.; 1.0 kg/ha): 60%; % damage (Bromus spp.; 1.0 kg/ha): 90%; % damage (Beta vulg.; 1.0 kg/ha): 0%
5 | Cc1cnn(CN(C(=O)CCl)c2c(C)cccc2C)c1 |  |  |  |  |  |  | 95% | 100% | 98% | % damage (Glyc. max; 0.5 kg/ha): 0%; % damage (Glyc. max; 1.0 kg/ha): 10%; % damage (Matric. spp.; 0.5 kg/ha): 100%; % damage (Matric. spp.; 1.0 kg/ha): 100%; % damage (Alopec. myosur.; 0.5 kg/ha): 90%; % damage (Setaria spp.; 0.5 kg/ha): 92%; % damage (Bromus spp.; 0.5 kg/ha): 95%; % damage (Bromus spp.; 1.0 kg/ha): 95%; % damage (Echin. c.g.; 0.5 kg/ha): 98%; % damage (Beta vulg.; 0.5 kg/ha): 0%; % damage (Beta vulg.; 1.0 kg/ha): 0%
6 | CCc1cccc(CC)c1N(Cn1cccn1)C(=O)CCl [Compound 8] |  |  |  |  |  |  |  |  |  | % damage (Sorgh. halep.; 0.25 kg/ha): 85%; % damage (Bromus spp.; 0.25 kg/ha): 100%; % damage (Amar. retro.; 0.25 kg/ha): 95%
7 | Cc1cccc(C(C)C)c1N(Cn1cncn1)C(=O)CCl [Compound 131] | 70% | 80% | 100% | 100% | 80% | 100% |  |  |  | 
8 | Cc1cc(C)c(N(Cn2nc(C)cc2C)C(=O)CCl)c(C)c1 [Compound 46] |  |  |  |  |  |  | 60% | 100% | 100% | % damage (Sorgh. halep.; 1.0 kg/ha): 80%; % damage (Cyp. diff.; 1.0 kg/ha): 100%; % damage (Amar. retro.; 1.0 kg/ha): 90%
9 | CCc1cccc(CC)c1N(Cn1nc(C)c(Cl)c1C)C(=O)CCl [Compound 108] | 70% | 60% | 100% | 90% | 100% | 100% |  |  |  | 
10 | Cc1cccc(C(C)C)c1N(Cn1cccn1)C(=O)CCl [Compound 9] | 100% | 90% | 100% | 100% | 100% | 100% |  |  |  | 
11 | Cc1ccc(Cl)cc1N(Cn1cccn1)C(=O)CCl [Compound 24] | 100% |  |  | 85% | 95% |  |  |  |  | % damage (Glyc. max; 2.0 kg/ha): 10%; % damage (Sorgh. bicol.; 2.0 kg/ha): 10%; % damage (Zea mays; 2.0 kg/ha): 0%; % damage (Beta vulg.; 2.0 kg/ha): 60%
12 | CCc1cccc(C)c1N(Cn1cc(C)cn1)C(=O)CCl |  |  |  |  |  |  |  |  |  | % damage (Echin. c.g.; 3.0 kg/ha): 100%
13 | CC(C)c1cccc(C(C)C)c1N(Cn1cccn1)C(=O)CCl [Compound 11] | 90% | 70% | 100% | 80% | 90% | 100% |  |  |  | 
14 | Cc1cc(C)n(CN(C(=O)CCl)c2c(C)cccc2C(C)C)n1 [Compound 42] |  |  |  |  |  |  | 95% | 100% | 100% | % damage (Sorgh. halep.; 1.0 kg/ha): 90%; % damage (Cyp. diff.; 1.0 kg/ha): 100%; % damage (Amar. retro.; 1.0 kg/ha): 100%
15 | Cc1cc(C)c(N(Cn2cccn2)C(=O)CCl)c(C)c1 [Compound 13] | 80% | 80% | 90% | 90% | 100% | 100% |  |  |  | 
16 | CC(C)c1ccccc1N(Cn1cccn1)C(=O)CCl [Compound 4] | 95% | 65% | 90% | 90% | 95% | 100% |  |  |  | 
17 | Cc1cccc(C)c1N(Cn1cc(Cl)cn1)C(=O)CCl | 100% |  |  | 100% |  | 100% | 95% | 95% | 100% | % damage (Glyc. max; 1.0 kg/ha): 5%; % damage (Glyc. max; 2.0 kg/ha): 20%; % damage (Matric. spp.; 1.0 kg/ha): 75%; % damage (Matric. spp.; 2.0 kg/ha): 80%; % damage (Bromus spp.; 1.0 kg/ha): 92%; % damage (Bromus spp.; 2.0 kg/ha): 95%; % damage (Beta vulg.; 1.0 kg/ha): 3%; % damage (Beta vulg.; 2.0 kg/ha): 13%
18 | Cc1cc(C)n(CN(C(=O)CCl)c2cccc(C)c2C)n1 [Compound 50] |  |  |  |  |  |  | 90% | 100% | 100% | % damage (Sorgh. halep.; 1.0 kg/ha): 70%; % damage (Cyp. diff.; 1.0 kg/ha): 100%; % damage (Amar. retro.; 1.0 kg/ha): 100%
19 | Cc1cc(C)n(CN(C(=O)CCl)c2ccccc2)n1 [Compound 34] |  |  |  | 95% | 100% | 90% |  | 80% | 90% | % damage (Glyc. max; 1.0 kg/ha): 0%; % damage (Glyc. max; 2.0 kg/ha): 0%; % damage (Sorgh. bicol.; 1.0 kg/ha): 0%; % damage (Sorgh. bicol.; 2.0 kg/ha): 10%; % damage (Zea mays; 1.0 kg/ha): 0%; % damage (Zea mays; 2.0 kg/ha): 0%; % damage (Bromus spp.; 1.0 kg/ha): 95%; % damage (Bromus spp.; 2.0 kg/ha): 95%; % damage (Amar. retro.; 1.0 kg/ha): 100%
20 | Cc1ccn(CN(C(=O)CCl)c2c(C)cccc2C)n1 [Compound 67] |  |  |  |  |  |  |  |  |  | % damage (Sorgh. halep.; 0.25 kg/ha): 95%; % damage (Bromus spp.; 0.25 kg/ha): 100%; % damage (Amar. retro.; 0.25 kg/ha): 100%
21 | Cc1cccc(N(Cn2cccn2)C(=O)CCl)c1C [Compound 17] | 50% | 75% | 100% | 90% | 90% | 100% |  |  |  | 
22 | CCc1cccc(CC)c1N(Cn1cncn1)C(=O)CCl [Compound 130] |  |  |  | 100% | 100% | 100% |  | 95% | 100% | % damage (Glyc. max; 0.5 kg/ha): 20%; % damage (Glyc. max; 1.0 kg/ha): 20%; % damage (Glyc. max; 2.0 kg/ha): 20%; % damage (Gossyp. hirs.; 0.5 kg/ha): 20%; % damage (Gossyp. hirs.; 1.0 kg/ha): 30%; % damage (Gossyp. hirs.; 2.0 kg/ha): 30%; % damage (Cyper. escul.; 0.5 kg/ha): 40%; % damage (Cyper. escul.; 1.0 kg/ha): 70%; % damage (Cyper. escul.; 2.0 kg/ha): 80%; % damage (Solanum nigrum; 0.5 kg/ha): 100%; % damage (Solanum nigrum; 1.0 kg/ha): 100%; % damage (Solanum nigrum; 2.0 kg/ha): 100%; % damage (Setaria spp.; 0.5 kg/ha): 85%; % damage (Amar. retro.; 0.5 kg/ha): 95%; % damage (Amar. retro.; 1.0 kg/ha): 100%; % damage (Echin. c.g.; 0.5 kg/ha): 95%; % damage (Euph. gen.; 0.5 kg/ha): 60%; % damage (Euph. gen.; 1.0 kg/ha): 60%; % damage (Euph. gen.; 2.0 kg/ha): 100%
23 | Cc1cc(C)n(CN(C(=O)CCl)c2c(C(C)C)cccc2C(C)C)n1 [Compound 44] | 80% | 40% | 100% | 90% | 80% | 90% |  |  |  | 
24 | Cc1cc(C)n(CN(C(=O)CCl)c2ccccc2C(C)C)n1 [Compound 37] |  |  |  |  |  |  | 30% | 100% | 100% | % damage (Sorgh. halep.; 1.0 kg/ha): 80%; % damage (Cyp. diff.; 1.0 kg/ha): 100%; % damage (Amar. retro.; 1.0 kg/ha): 100%
25 | Cc1ccc(C)c(N(Cn2nc(C)cc2C)C(=O)CCl)c1 [Compound 52] | 60% | 60% | 100% | 90% | 100% | 95% |  |  |  | 
26 | CCc1cccc(CC)c1N(Cn1ccc(C)n1)C(=O)CCl [Compound 70] |  |  |  |  |  |  |  |  |  | % damage (Sorgh. halep.; 0.25 kg/ha): 75%; % damage (Bromus spp.; 0.25 kg/ha): 100%; % damage (Amar. retro.; 0.25 kg/ha): 100%
